Values joined by “and” are separate entries in the source; they are usually repeats but may differ in a detail not shown here. Identical values can stand only once.
What was measured:
[1] = tested on: washed human platelets (P2Y1-R/Gαq signaling); test: IP1 accumulation assay (HTRF) in washed human platelets; type: cell-based; conditions: washed human platelets, ADP 100 μM, antagonists 10 μM, Gq inhibitor 100 nM, 2 h, apyrase 0.02 U/mL, result in words
Method: As performed in HEK293T cells, we thus quantified intracellular IP1 levels to monitor Gαq protein-dependent signaling pathways.
Human platelets were prepared from adult healthy volunteers free of antiplatelet or anti-inflammatory medication since at least ten days. […] After two steps of centrifugation and suspension in Tyrode’s buffer (140 mM NaCl, 5 mM KCl, 5 mM KH2PO4, 1 mM MgSO4, 10 mM HEPES, 5 mM glucose and 0.35% (w/v) BSA, pH 6,7), washed platelets were suspended in the same buffer adjusted to pH 7.4 and containing 1 mM CaCl2. The final platelet suspension was adjusted to 3.10^8 platelets/mL and rested for 45 min in the presence of 0.02 U/mL apyrase and 10 μM indomethacin at 37 °C prior experiments. PGI2 (0.5 μM) was added before centrifugation steps to avoid platelet activation.
Quantification of intracellular IP1 was performed using the HTRF (Homogeneous Time Resolved Fluorescence) IP1 competitive immunoassay (IP-One Tb kit. Cisbio. France) according to the manufacturer’s instructions. Briefly, 20,000 HEK293T/17 cells or 3.10^6 platelets were distributed in a 384-well white microplate (Greiner) and incubated with the indicated molecules for 30 min or 2 h at 37 °C in the presence of 50 mM of LiCl to prevent IP1 degradation. After addition of d2-labeled IP1 (acceptor) and anti-IP1-Cryptate (donor) for 1 h, the specific FRET signals were calculated by the fluorescence ratio of the acceptor and donor emission signal (665/620 nm) collected using a modified Infinite F500 (Tecan Group Ltd). Conversion of the HTRF ratio of each sample into IP1 concentrations was performed on the basis of a standard curve to determine the linear dynamic range of the assay.

Human P2Y1-R = biological target: T1, Human P2Y1-R (Homo sapiens, UniProt P47900); test: β-arrestin 2 recruitment BRET1 assay (β-arrestin 2-RLuc / P2Y1-R-Venus) in HEK293T cells; type: cell-based; conditions: for b-arrestin 2 signaling, Ligand-modulated BRET (% of maximum MRS2179 mean value): Figure 4b, individual replicates
T1 construct: expressed in transfected cells; host or cells: HEK293T/17
T1 sequence (P47900 whole entry): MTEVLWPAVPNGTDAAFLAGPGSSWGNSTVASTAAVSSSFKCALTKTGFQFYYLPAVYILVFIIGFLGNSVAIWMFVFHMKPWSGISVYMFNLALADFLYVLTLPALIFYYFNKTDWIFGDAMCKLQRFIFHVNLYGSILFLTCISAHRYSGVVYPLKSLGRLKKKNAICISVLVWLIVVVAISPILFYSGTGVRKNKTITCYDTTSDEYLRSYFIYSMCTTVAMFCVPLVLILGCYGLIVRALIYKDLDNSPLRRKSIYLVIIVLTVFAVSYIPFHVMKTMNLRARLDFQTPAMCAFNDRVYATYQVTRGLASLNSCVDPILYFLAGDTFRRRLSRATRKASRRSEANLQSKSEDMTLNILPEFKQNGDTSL
Text: We assessed β-arrestin 2 recruitment to the receptor using BRET^1 assay. The assay measures the interaction between β-arrestin 2 fused to the Renilla reniformis luciferase (RLuc) energy donor and the receptor fused to fluorescent Venus energy acceptor (Fig. 3a). The recruitment of cytosolic β-arrestin 2 to the receptor at the plasma membrane in the presence of an agonist will promote a significant increase of the BRET signal compared to the basal state, reflecting the close proximity between the β-arrestin 2 energy donor and the receptor energy acceptor [22].
Human P2Y1-R (NCBI Reference Sequence: NM_002563.2) and P2Y12-R (NCBI Reference Sequence: NM_022788.3) were fused to double Myc epitope and rat AT1-R (NCBI Reference Sequence: NM_030985.4) to HA tag in N-terminus extracellular region. Alternatively, receptors were also fused to Venus tag in C-terminus intracellular region. Plasmids encoding Gαq-RLuc8, GFP2-Gγ2 and untagged Gβ1 were previously described. ADP was purchased from Sigma-Aldrich/Merck (Darmstadt, Germany). […] The Gq inhibitor (FR900359) was kindly supplied by Evi Kostenis (University of Bonn. Germany).
G protein activation and β-arrestin 2 recruitment were performed as previously described. Briefly, vectors encoding receptors, Gαq-RLuc8, GFP2-Gγ2, Gβ1, or β-arrestin 2 were transiently cotransfected into HEK293T/17 cells as indicated in the figure legends. Forty-eight hours after transfection, cells were washed and resuspended in PBS containing 0.1% (w/v) glucose at room temperature and then distributed (80 μg proteins/well) in a 96-well microplate (PerkinElmer). For G protein activation experiments (BRET^2), cells were incubated in the absence (basal BRET signal) or in the presence of ligand for 1 minute. BRET signal between RLuc8 and GFP2 was measured after addition of the luciferase substrate coelenterazine 400a (5 μM). For β-arrestin 2 recruitment (BRET^1), cells were stimulated with ligands for 5 or 15 min. BRET signal was recorded after incubation with coelenterazine h (5 μM) for 8 min. For kinetics studies, BRET signal between RLuc and Venus was recorded at 20-s intervals at basal state for the 2 first minutes and then for 5 min after ligand injection. For saturation curves (BRET^1), the expression level of Venus- or RLuc-tagged protein was determined by direct measurement of total fluorescence and luminescence respectively. Total fluorescence was first measured with an excitation filter at 485 nm and an emission filter at 520 nm. Then, the same sample was incubated for 8 minutes with 5 μM coelenterazine h and the total luminescence was measured. BRET^2 and BRET^1 readings were collected using a modified Infinite F500 (Tecan Group Ltd). The BRET^2 signal was calculated by the ratio of emission of GFP2 (510–540 nm) to RLuc8 (370–450 nm) and the BRET^1 signal by the ratio of emission of Venus (520–570 nm) to RLuc (370–480 nm). Sometimes, results are expressed as the Net BRET computed by deducting the BRET background signal (obtained in the presence of the energy donor alone) from the BRET signal (acquired from cells expressing both the energy donor and acceptor).

[2] = β-Arrestin 2 signaling, Fig. 4b, 15 min

SMILES | Effect on IP1 levels [1] | b-arrestin 2 signaling, Ligand-modulated BRET (% of maximum MRS2179 mean value) (Human P2Y1-R; [Ligand] 1.00E-04 M) | b-arrestin 2 signaling, Ligand-modulated BRET (% of maximum MRS2179 mean value) (Human P2Y1-R; [Ligand] 1.00E-05 M) | b-arrestin 2 signaling, Ligand-modulated BRET (% of maximum MRS2179 mean value) (Human P2Y1-R; [Ligand] 1.00E-06 M) | b-arrestin 2 signaling, Ligand-modulated BRET (% of maximum MRS2179 mean value) (Human P2Y1-R; [Ligand] 1.00E-07 M) | b-arrestin 2 signaling, Ligand-modulated BRET (% of maximum MRS2179 mean value) (Human P2Y1-R; [Ligand] 1.00E-08 M) | b-arrestin 2 signaling, Ligand-modulated BRET (% of maximum MRS2179 mean value) (Human P2Y1-R; [Ligand] 1.00E-09 M) | b-arrestin 2 signaling, Ligand-modulated BRET (% of maximum MRS2179 mean value) (Human P2Y1-R; [Ligand] 1.00E-10 M) | Effect on β-arrestin 2 recruitment / BRET signal between P2Y1-R-Venus and β-arrestin 2-RLuc (Human P2Y1-R; HEK293T cells, high P2Y1-R expression, result in words) | EC50 (Human P2Y1-R; [2]) [µM] | pEC50 ± s.e.m. (Human P2Y1-R; [2])
CNc1nc(Cl)nc2c1ncn2[C@H]1CC(OP(=O)(O)O)[C@]2(COP(=O)(O)O)C[C@H]12 (stereo in doubt) [MRS2279] | inverse agonist efficacy | -69.6106 % of maximum MRS2179 mean value and -105.156 % of maximum MRS2179 mean value and -85.2747 % of maximum MRS2179 mean value and -86.0383 % of maximum MRS2179 mean value and -102.622 % of maximum MRS2179 mean value | -58.9493 % of maximum MRS2179 mean value and -35.292 % of maximum MRS2179 mean value and -0.8674 % of maximum MRS2179 mean value and -67.8538 % of maximum MRS2179 mean value and -74.7757 % of maximum MRS2179 mean value | -39.831 % of maximum MRS2179 mean value and -16.8165 % of maximum MRS2179 mean value and 4.878 % of maximum MRS2179 mean value and -40.0637 % of maximum MRS2179 mean value and -56.9245 % of maximum MRS2179 mean value | -39.6457 % of maximum MRS2179 mean value and -31.8109 % of maximum MRS2179 mean value and -14.3137 % of maximum MRS2179 mean value and -31.2635 % of maximum MRS2179 mean value and -51.8509 % of maximum MRS2179 mean value | -22.0748 % of maximum MRS2179 mean value and -36.9002 % of maximum MRS2179 mean value and -1.913 % of maximum MRS2179 mean value and -12.8092 % of maximum MRS2179 mean value and -19.8439 % of maximum MRS2179 mean value | -17.6957 % of maximum MRS2179 mean value and -18.0324 % of maximum MRS2179 mean value and -16.7903 % of maximum MRS2179 mean value and 1.141 % of maximum MRS2179 mean value and 5.256 % of maximum MRS2179 mean value | -24.7041 % of maximum MRS2179 mean value and -19.9635 % of maximum MRS2179 mean value and -11.9373 % of maximum MRS2179 mean value and -22.7633 % of maximum MRS2179 mean value and -19.9712 % of maximum MRS2179 mean value | behaved as inverse agonists | 19.4 | 4.712 ± 0.2838
Nc1ncnc2c1ncn2[C@@H]1O[C@H](COP(=O)(O)OP(=O)(O)O)[C@@H](O)[C@H]1O [ADP, adenosine diphosphate] | significantly increased | – | – | – | – | – | – | – | – | – | –

Reference: article PMC9890698 (BMC Biology, 2023)
